Counter-ions that a name gives are not always drawn.
How the values were obtained:
Type in all cases: physicochemical
[1] = oxidation potential E2 of radical X by laser flash photolysis; conditions: Table H; model compound, A and L replaced by alkyl
Method in brief: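 Radical X· generated by fragmentation of X-Y·+, formed via 410 nm laser-excited cyanoanthracene (ca. 2×10^-5–10^-4 M) with biphenyl (ca. 0.1 M) cosensitiser and X-Y (ca. 10^-3 M) in acetonitrile or 80:20 acetonitrile/water. E2 bracketed by observing second-acceptor reduction (DCA −0.91 V, TriCA −0.67 V, TCA −0.44 V) by transient absorption near 705–715 nm.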

[2] = oxidation potential E1 by cyclic voltammetry; conditions: for E1 (V) for XY moiety: Table H, model compound, A and L replaced by alkyl
Method in brief: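 Compound in 80:20 (v/v) acetonitrile/water with 0.1M lithium perchlorate, nitrogen-purged 10 minutes. Glassy carbon working, platinum wire counter and saturated calomel reference electrodes; 25° C, sweep rate 0.1 V/sec. E1 is the voltammetric peak potential vs. SCE.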

[3] = fragmentation rate constant kfr by laser flash photolysis; conditions: Table H; model compound, A and L replaced by alkyl
Method in brief: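 DCA excited by laser in presence of biphenyl and ca. 10^-2 M donor generates X-Y radical cation; its decay was monitored at mostly 470-530 nm. Run in acetonitrile with 20% water, mostly at room temperature, some rates extrapolated from temperature dependence; oxygen purging used for decays below 10^6 s^-1.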

SMILES	E2 (V) for XY moiety [1]	E1 (V) for XY moiety [2]	kfr (s^-1) for XY moiety [3]	E1 (V) ([2]; Table III)	E1 (V) ([2]; Table X)	E1 (V) ([2]; Table II)	E1 (V) ([2]; Table IX)	E1 (V) ([2]; Table XI)	E1 (V) ([2]; Table IV)
CC(C(=O)O)N(CCC(=O)Nc1cccc(-n2nnnc2S)c1)c1ccccc1 (stereo not drawn) [PMT-2]	< -0.9 V	0.43 V	> 2e+07 s⁻¹						
CCSCCN(c1ccc(C)cc1)C(CC(=O)O)C(=O)O (stereo not drawn) [Compound S-8]	< -0.9 V	0.38 V	1.3e+07 s⁻¹	0.45 V	0.45 V				
Cc1ccc(N(CCC(=O)Nc2cccc(-n3nnnc3S)c2)C(C)C(=O)O)cc1 (stereo not drawn) [PMT-1]	< -0.9 V	0.34 V	> 2e+07 s⁻¹						
CCSCCN(c1ccc(C)cc1)[C@@H](C)C(=O)[O-].[Na+] [Compound S-3, N-(4-Methylphenyl)-N-(2-ethylthio-ethyl)alanine sodium salt]	< -0.9 V	0.34 V	6e+07 s⁻¹	0.38 V	0.38 V	0.47 V			
CCSCCN(c1ccccc1)C(CC(=O)O)C(=O)O (stereo not drawn) [Compound S-14]	< -0.9 V	0.48 V	> 2e+07 s⁻¹				0.51 V	0.51 V	
CCSCCN(c1ccccc1)C(C)C(=O)O (stereo not drawn) [Compound S-9, N-(Phenyl)-N-(2-thioethyl-ethyl)alanine sodium salt]	< -0.9 V	0.43 V	> 2e+07 s⁻¹	0.43 V	0.43 V				0.43 V
CCSCCN(c1ccc(C(=O)O)cc1)C(C)C(=O)O (stereo not drawn) [Compound S-11]	< -0.9 V	0.54 V	> 2e+07 s⁻¹				0.54 V	0.54 V	0.55 V
CCSCCN(c1cccc(C(N)=O)c1)C(C)C(=O)O (stereo not drawn) [Compound S-13]	< -0.9 V	0.52 V	> 2e+07 s⁻¹				0.53 V	0.53 V	0.53 V
CCSCCN(c1ccc(Cl)cc1)C(C)C(=O)O (stereo not drawn) [Compound S-12, N-(4-Chlorophenyl)-N-(2-thioethyl-ethyl)alanine sodium salt]	< -0.9 V	0.40 V	> 2e+07 s⁻¹					0.51 V	0.51 V
